Tested on: blood-aqueous barrier of the eye
Experiment: Effect of the present compound on the blood-aqueous barrier of the eye (anterior chamber irrigation, carboxy-fluorescein leakage)
Type: in vivo, White rabbits
Details: mean ± S.E.
Experimental: White rabbits weighing about 2.5 kg were used.
Physiological saline, 0.06, 0.6 and 6 mM solutions of DCE-GS in physiological saline, and a 0.3 mM solution of GSSG (oxidized glutathione)in physiological saline were used as intraocular irrigating solutions and their effects on the blood-aqueous barrier of the eye were evaluated.
Two 23 G needles connected to a polyethylene tube were gently inserted into the anterior chamber of the eye of rabbits under anesthesia (ketamine hydrochloride: xylazine hydrochloride=1:1) and 0.5 ml/kg of 1% carboxy-fluorescein was injected into the auricular vein immediately before irrigation. Using a syringe pump, the intraocular irrigating solution was infused at the rate of 1.5 ml/min. and 25 μl of the outflowing intraocular irrigating solution and the blood were respectively collected at 15-minute intervals over the period of 1 hour and the intensity of florescence of each sample was determined with a spectrophotofluorometer. The collected blood was mixed with 2.5 ml of physiological saline and the mixture was centrifuged at 3000 rpm to separate the supernatant for use as a sample.
The degree (4) of protein leakage was calculated by means of the following equation. (Intensity of fluorescence of irrigating solution/intensity of fluorescence of blood)×100 (%)

Compound	degree of protein leakage (0.06 mM in physiological saline, irrigation 1.5 ml/min, time 15 min, n 7) [%]	degree of protein leakage (0.06 mM in physiological saline, time 30 min, n 7) [%]	degree of protein leakage (0.06 mM in physiological saline, time 45 min, n 7) [%]	degree of protein leakage (0.06 mM in physiological saline, time 60 min, n 7) [%]	degree of protein leakage (0.6 mM in physiological saline, time 15 min, n 8) [%]	degree of protein leakage (0.6 mM in physiological saline, time 30 min, n 8) [%]	degree of protein leakage (0.6 mM in physiological saline, time 45 min, n 8) [%]	degree of protein leakage (0.6 mM in physiological saline, time 60 min, n 8) [%]	degree of protein leakage (6 mM in physiological saline, time 15 min, n 5) [%]	degree of protein leakage (6 mM in physiological saline, time 30 min, n 5) [%]	degree of protein leakage (6 mM in physiological saline, time 45 min, n 5) [%]	degree of protein leakage (6 mM in physiological saline, time 60 min, n 5) [%]	degree of protein leakage (0.3 mM in physiological saline, time 15 min, n 5) [%]	degree of protein leakage (0.3 mM in physiological saline, time 30 min, n 5) [%]	degree of protein leakage (0.3 mM in physiological saline, time 45 min, n 5) [%]	degree of protein leakage (0.3 mM in physiological saline, time 60 min, n 5) [%]
N[C@@H](CCC(=O)N[C@@H](CSC(CC(=O)O)C(=O)O)C(=O)NCC(=O)O)C(=O)O (stereo partly drawn) [DCE-GS, S-(α,β-dicarboxyethyl) glutathione]	0.16 ± 0.02	0.23 ± 0.05	0.11 ± 0.05	0.18 ± 0.03	0.13 ± 0.01	0.19 ± 0.02	0.15 ± 0.02	0.13 ± 0.02	0.13 ± 0.02	0.16 ± 0.02	0.22 ± 0.04	0.15 ± 0.02				
oxidized glutathione [GSSG, reference compound]													0.22 ± 0.03	0.17 ± 0.01	0.15 ± 0.03	0.15 ± 0.03

From US5466673A, “Method of inhibiting calcium precipitation in an intraocular irrigating solution” (Senju Pharmaceutical Co., Ltd., priority 1993, dated 1995)
